From patent publication US4547489A, “Conformationally restricted thymopentin-like compounds” (Ortho Pharmaceutical Corporation, priority 1984, dated 1985)
Where a SMILES comes first, the peptide text is derived from it. Where no end group is shown, it is not given here.

system: cell membrane receptor of the intact CEM cell; assay: Cyclic-GMP assay: induction of cyclic-GMP production in CEM cells; format: cell-based, human; details: 4-5 min incubation at 37° C., radioimmunoassay of cyclic GMP
Text: This biological activity is evidenced by an assay measuring induction of cyclic-GMP production in a human T-cell line in comparison with thymopoietin. The induction of c-GMP production by a test peptide in this assay indicates the ability of the test peptide to bind to the thymopoietin receptor site on the cell and induce thymopoietin-like biological activity.
This assay measures the ability of the test peptide to bind to the cell membrane receptor of the intact CEM cell and selectively stimulate production of cyclic-GMP, as does thymopoietin itself.
The CEM cell line was obtained from the American Type Culture Collection and was cultured in RPMI-1640 medium supplemented with 10% heat-inactivated fetal bovine serum, 10% heat-inactivated horse serum, 2mM L-glutamine, and 50 µg/ml gentamycin at 37° C. in a humid atmosphere containing 5 percent CO2, to a final density of 3-4×10^6 cells/ml. […]
The cells in TCA were then homogenized and sonicated to release cyclic nucleotide. The resulting suspension was centrifuged at 3000 g for 20 min at 4° C. and the resulting precipitate was dissolved in 0.1N NaOH and sonicated for a further 30 minutes, after which the protein content was determined by the method of Cadman, et al., Anal. Biochem., 96, 21-23 (1979). […]

Compound	thymopentin-like activity (cyclic GMP induced by test peptide)
CC(C)[C@@H]1NC(=O)[C@H](CC(=O)O)NC(=O)[C@H](CCCCN)NC(=O)[C@H](CCCNC(=N)N)NC(=O)[C@H](Cc2ccc(O)cc2)NC1=O [peptide 1, Cyclo-(Arg-Lys-Asp-Val-Tyr)] (cyclo(DVYRK))	demonstrated thymopentin-like activity
CC(C)[C@@H]1NC(=O)[C@H](CC(=O)O)NC(=O)[C@H](CCCCN)NC(=O)[C@H](CCCNC(=N)N)NC(=O)CNC(=O)[C@H](Cc2ccc(O)cc2)NC1=O [peptide 2, Cyclo-[Arg-Lys-Asp-Val-Tyr-Gly]] (cyclo(DVYGRK))	demonstrated thymopentin-like activity

system: isolated thymopoietin cell surface receptor protein from CEM cells; assay: not given; details: 2.3×10^-10 M 125I-Tp, 4 μg receptor protein, TP 37-45 nonapeptide present, 12 h

Compound	displacement of 125I-thymopoietin (in words)
β-endorphin: comparison peptide in the receptor assay (YGGFMTSEKSQTPLVTLFKNAIIKNAYKKGE; Beta-endorphin; UniProt P01189 237-267, looked up)	no detectable displacement
ACTH: adrenocorticotropic hormone (SYSMEHFRWGKPVGKKRRPVKVYPNGAEDESAEAFPLEF; Corticotropin; UniProt P01189 138-176, looked up)	no detectable displacement
C[C@H](N)C(=O)NCC(=O)N[C@H]1CSSC[C@@H](C(=O)O)NC(=O)[C@H](CO)NC(=O)[C@H]([C@@H](C)O)NC(=O)[C@H](Cc2ccccc2)NC(=O)[C@H]([C@@H](C)O)NC(=O)[C@H](CCCCN)NC(=O)[C@H](Cc2c[nH]c3ccccc23)NC(=O)[C@H](Cc2ccccc2)NC(=O)[C@H](Cc2ccccc2)NC(=O)[C@H](CC(N)=O)NC(=O)[C@H](CCCCN)NC1=O [somatostatin]	no detectable displacement
growth hormone: comparison peptide in the receptor assay	no detectable displacement
ubiquitin	no detectable displacement
CRF: corticotropin-releasing factor (SEEPPISLDLTFHLLREVLEMARAEQLAQQAHSNRKLMEII; ends and bridges not checked; UniProt P06850 154-194, looked up)	no detectable displacement
glucagon: comparison peptide in the receptor assay	no detectable displacement
